This test addresses T1, actin (G-actin, rabbit muscle) (Oryctolagus cuniculus, UniProt P68135).
T1 construct: gene ACTA1; rabbit muscle actin monomer; with mouse twinfilin C-terminal ADF-H domain (residues 176–316), in the crystal only
The experiment in a line: co-crystal structure ([…] Å); fluorescence anisotropy association/dissociation kinetics. It counts as binding. For orientation: Polarisation of emitted light reports the rotation of a fluorescent probe.

As for ATP-ATTO-488, the k- entry was “~ (1 ± 0.4) × 10^−3 (k−) s^−1”.
